Results reported in PMC11237035, “Glutathione determines chronic myeloid leukemia vulnerability to an inhibitor of CMPK and TMPK” (Communications Biology, 2024).
Where “and” joins values, the source holds several entries; their conditions need not be identical. Equal entries are not always repeated.

Columns and labels:
[1] = tested on: untransformed 32D cells; test: CCK-8 cell viability assay, untransformed 32D cells; type: cell-based, mouse
Experimental: After 72 h, viability assays were performed.
3 independent experiments. Asterisks denote ***p<0.001 from non-paired two-tailed

[2] = tested on: T315I-Bcr-Abl-32D cells; test: CCK-8 cell viability assay, T315I-Bcr-Abl-32D cells; type: cell-based, mouse
[3] = tested on: T315I-Bcr-Abl-32D cells; test: GSH/GSSG-Glo measurement, T315I-Bcr-Abl-32D cells; type: cell-based, mouse
Description: (§1) The GSH/GSSG-Glo™ Assay Kit (Promega, V6611) was used for luminescent-based measurement of cellular GSH and GSSG by Tecan Spark 10 microplate reader.

[4] = tested on: T315I-Bcr-Abl-32D cells; test: DNA fiber assay (replication speed), T315I-Bcr-Abl-32D cells; type: cell-based, mouse; conditions: 16 h
Experimental: (§2) The workflow of DNA fiber labeling (Right). The representative labeled fibers are shown below. Replication speed in kb/min was calculated by the measured length of IdU (green) linking to CldU (red) in μm with a conversion factor of 0.34 μm/kb divided by the duration of the labeling pulse (Scale bar = 10 μm). The gray triangle indicates the boundary between red fluorescence and green fluorescence. c The measurement of intracellular ROS by the fluorescence intensity of CellROX Green staining using flow cytometric analysis. Data are presented as mean intensity relative to untransformed 32D cells. d, e The measurement of GSSG and GSH. […] Schematic illustration of the metabolic path U-^13C glutamine incorporation into the GSH (left). Gray and white circles indicate ^13C-label, and unlabeled ^12C, respectively. The traced isotopologue abundance of GSH is shown (right).
(§3) The DNA fiber assay was performed as described previously. Briefly, cells were sequentially treated with the medium containing 25 μM of CldU (Sigma-Aldrich, C6891) and then 250 μM of IdU (Sigma-Aldrich, I7125) for 20 min. After washing, cells were suspended in PBS (1000 cells/ μL). 2 μL of cell suspension was spotted on slides. […] The lengths of red- and green-labeled fibers were determined by FluoView3.0 software (Olympus).

[5] = tested on: WT-Bcr-Abl-32D cells; test: CCK-8 cell viability assay, WT-Bcr-Abl-32D cells; type: cell-based, mouse; conditions: WT-Bcr-Abl, NAC with vehicle, single replicates
[6] = tested on: WT-Bcr-Abl-32D cells; test: GSH/GSSG-Glo measurement, WT-Bcr-Abl-32D cells; type: cell-based, mouse
Description: as §1

[7] = tested on: WT-Bcr-Abl-32D cells; test: DNA fiber assay (replication speed), WT-Bcr-Abl-32D cells; type: cell-based, mouse; conditions: NAC 1 mM, 16 h
Experimental: as §2, §3

[8] = tested on: T315I-Bcr-Abl-32D cells; test: dTTP/dCTP pools by RCA-qPCR in T315I-Bcr-Abl-32D cells; type: cell-based, mouse; conditions: T315I; replicates
Experimental: The methanol extracts were centrifuged
For chloroform extraction, same volume of
attomol of the annealed template-primer.
The RCA products were determined by
The thiophenol compound 3 was
(98.5%) after silica gel chromatography.

[9] = tested on: untransformed 32D cells; test: GSH/GSSG-Glo measurement, untransformed 32D cells; type: cell-based, mouse; conditions: UK-5099 25 μM, 16 h
Description: as §1

[10] = tested on: K562 cells; test: GSH/GSSG-Glo measurement, K562 cells; type: cell-based, human
Experimental: (§4) After 3 days, cells were analyzed by viability assays.
as §1

[11] = tested on: TCCS cells; test: GSH/GSSG-Glo measurement, TCCS cells; type: cell-based, human; conditions: for GSH level: TCCS cells, 16 h
Experimental: as §4, §1

[12] = tested on: KOPM28 cells; test: GSH/GSSG-Glo measurement, KOPM28 cells; type: cell-based, human; conditions: for GSH level: KOPM28 cells, 16 h
Experimental: as §4, §1

[13] = tested on: untransformed 32D cells; test: DNA fiber assay (replication speed), untransformed 32D cells; type: cell-based, mouse; conditions: UK-5099 25 μM, 16 h
Experimental: as §2, §3

[14] = tested on: T315I-Bcr-Abl-32D cells in C3H/HeNCrNarl mice; conditions: T315I-Bcr-Abl-32D mice, UK-5099 10 mg/kg i.p. daily for 14 days alone, vs vehicle
Experimental: Asterisks denote *p < 0.05, **p < 0.01, ***p < 0.001, or ****p < 0.0001 from unpaired two-tailed Student’s t-test or Log-rank (Mantel–Cox) test.
T315I-Bcr-Abl-transformed and untransformed 32D cells were treated with UK-5099 (25 μM) for 16 h. […] Data are represented as means ± S.D., n > 3 biological replicates.
The animal studies were approved by the biosafety committee at National Taiwan University and conformed to the national guidelines and regulations (IACUC # 20201063). Female C3H/HeNCrNarl mice were used at 6–8 weeks of age (National Laboratory Animal Center, Taiwan).
Mouse CML induction and in vivo therapy
The animal studies were approved by the biosafety committee at National Taiwan
University and conformed to the national guidelines and regulations (IACUC #
20201063). Female C3H/HeNCrNarl mice were used at 6-8 weeks of age (National
Laboratory Animal Center, Taiwan).
suspended in 200 μL of HBSS were injected into each mouse through the tail vein.
suspended in 200 μL of HBSS were tail-vein-injected.
For monitoring CML progress, mice blood was
collected in anticoagulation tubes by submandibular blood collection, followed by
lysing red blood cells with RBC lysis buffer (Invitrogen). After washing, the remaining
cells were suspended in 500 μL of HBSS and subjected to flow cytometry analysis
(FACScalibur, BD Bioscience) with CellQuest software.

[15] = target: T1, hTMPK (Homo sapiens, UniProt P23919); test: biochemical
T1 sequence (P23919 1-212): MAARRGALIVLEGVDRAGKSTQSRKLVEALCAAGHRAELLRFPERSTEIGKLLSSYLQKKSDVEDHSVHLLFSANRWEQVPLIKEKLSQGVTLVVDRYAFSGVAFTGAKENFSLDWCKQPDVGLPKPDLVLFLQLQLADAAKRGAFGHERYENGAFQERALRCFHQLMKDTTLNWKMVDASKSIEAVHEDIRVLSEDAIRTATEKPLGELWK
Experimental: (§6) Activity assay was measured using the spectrophotometric method by coupling ADP formation to NADH oxidation catalyzed by pyruvate kinase and lactate dehydrogenase as described previously[20]. Each reaction contained 0.4 μg TMPK or 0.3 μg CMPK was incubated at 25 °C followed by using Tecan Spark 10 microplate reader to detect the change in NADH measurement at 340 nm absorption according to the manufacturer’s instructions.

[16] = target: T2, hCMPK (Homo sapiens, UniProt P30085); test: biochemical
T2 sequence (P30085 1-196): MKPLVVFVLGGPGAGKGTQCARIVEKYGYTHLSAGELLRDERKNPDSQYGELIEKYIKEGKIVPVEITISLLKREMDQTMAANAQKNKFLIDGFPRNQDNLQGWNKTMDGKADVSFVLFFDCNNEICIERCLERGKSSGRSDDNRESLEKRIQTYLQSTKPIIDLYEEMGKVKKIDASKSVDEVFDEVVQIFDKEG
Experimental: as §6

[17] = tested on: TCCS cells; test: DNA fiber assay (replication speed), TCCS cells; type: cell-based, human; conditions: erastin 0.5 μM, 16 h
Experimental: as §4
(§5) The DNA fiber assay was performed as described previously. Briefly, cells were sequentially treated with the medium containing 25 μM of CldU (Sigma-Aldrich, C6891) and then 250 μM of IdU (Sigma-Aldrich, I7125) for 20 min. After washing, cells were suspended in PBS (1000 cells/ μL). 2 μL of cell suspension was spotted on slides. After 5 min, 10 μL spread solution (200 mM Tris-HCl, pH 7.5, 50 mM EDTA, and 0.5% SDS) was spotted on the cell droplet and spread on slides. The slides were then fixed with methanol/acetic acid (3:1), followed by denaturation with 2.5 M HCl. After blocking with 5% BSA in TBST, slides were stained with rat anti-BrdU antibody (which detects CldU but not IdU, OBT0030, 1:2000, AbDSerotec) and mouse anti-BrdU antibody (which detects IdU but not CldU, 7580, 1:1000, BD Biosciences) at 4 °C for overnight. The next day, slides were washed with TBST, followed by staining with the secondary antibodies of goat anti-rat IgG conjugated with TRITC (Jackson Lab) and goat anti-mouse IgG conjugated with FITC. Images of DNA fibers were acquired using a microscope (Olympus). The lengths of red- and green-labeled fibers were determined by FluoView3.0 software (Olympus).

[18] = tested on: KOPM28 cells; test: DNA fiber assay (replication speed), KOPM28 cells; type: cell-based, human; conditions: erastin 0.5 μM, 16 h
Experimental: as §4, §5

SMILES: CCCCS(=N)(=O)CCC(N)C(=O)O (stereo not drawn) [BSO, buthionine sulphoximine]
- viability (vehicle, 0 = 100) ([1]; 32D cells, BSO 12.5 μM alone (JMF4073 0), single replicates): 83.2384 and 115 and 94.5481
- cell viability (% of NT, 0 JMF4073), Figure 5e ([2]; T315I, BSO alone (JMF4073 0), single replicates): 99.4456 and 92 and 86.6884
- growth of cells, BSO alone ([2]; T315I-Bcr-Abl cells, BSO treatment alone): did not suppress the growth
- GSH% ([3]; Figure 5c, T315I-Bcr-Abl, BSO vs NT = 100, single replicates): 10.69% and 9.7% and 22.3%
- cellular level of GSH ([3]; T315I-Bcr-Abl-32D cells, BSO 12.5 μM, 16 h): reduced
- lengths of replication tracks ([4]; T315I-Bcr-Abl-32D cells, BSO 12.5 μM): reduced

SMILES: CC(=O)N[C@@H](CS)C(=O)O [NAC, N-Acetyl-Cysteine]
- cell viability (% of NT vehicle), Figure 5h [5]: 96.5592 and 69.512 and 104.601
- GSH% ([6]; Figure 5f, WT-Bcr-Abl, NAC vs NT = 100, single replicates): 161.382% and 219.818% and 187.248% and 315.164%
- cellular GSH level ([6]; WT-Bcr-Abl-32D cells, NAC 1 mM, 16 h): increased the cellular GSH level
- lengths of replication tracks [7]: increased lengths of replication tracks

SMILES: N#C/C(=C\c1cn(-c2ccccc2)c2ccccc12)C(=O)O [UK-5099]
- Figure 6d, dCTP relative to NT (=100) [8]: 73.8406 and 210.17 and 73.3898
- Figure 6d, dTTP relative to NT (=100) [8]: 74.5764 and 216.09 and 77.7298
- Figure 6c, viability relative to NT (=100) ([1]; 32D, UK-5099 alone (JMF4073 0), replicates): 104.358 and 105.293 and 83.4613
- Figure 6c, viability relative to NT (=100) ([2]; T315I-Bcr-Abl, UK-5099 alone (JMF4073 0), replicates): 99.9363 and 88.5988 and 102.123
- GSH level ([3]; T315I-Bcr-Abl cells, UK-5099 25 μM, 16 h): reduce GSH levels
- effect on GSH reduction, compared with T315I-Bcr-Abl cells [9]: less
- GSH% relative to K562 (Figure 7e) ([10]; K562, UK-5099 treated, K562 vehicle = 100, per replicate): 52.9657% and 35.7607% and 66.83%
- cellular level of GSH ([10]; K562 cells, UK-5099 50 μM, 16 h): bring down
- GSH level ([11]; UK-5099 50 μM): unchanged
- GSH% relative to K562 (Figure 7e) ([11]; TCCS, UK-5099 treated, K562 vehicle = 100, per replicate): 96.7924% and 63.772% and 96.1621%
- GSH% relative to K562 (Figure 7e) ([12]; KOPM28, UK-5099 treated, K562 vehicle = 100, per replicate): 180.441% and 154.066% and 117.536%
- GSH level ([12]; UK-5099 50 μM): unchanged
- replication fork progression ([4]; T315I-Bcr-Abl cells, UK-5099 25 μM): slow replication fork progression
- effect on replication stress, compared with T315I-Bcr-Abl cells [13]: less
- survival of leukemia mice [14]: not affected

SMILES: CCOC(=O)N1CCN(C(=O)Cn2sc3nc(C)cc(C)c3c2=O)CC1 [YMU1]
- IC50 [15]: 0.72 µM
- IC50 [16]: 1.8 µM

SMILES: CCOc1ccccc1-n1c(C(C)N2CCN(C(=O)COc3ccc(Cl)cc3)CC2)nc2ccccc2c1=O (stereo not drawn) [erastin]
- GSH level ([11]; erastin 0.5 μM): drastically reduced
- GSH% relative to K562 in 7e (Figure 7f) ([11]; TCCS, Erastin treated, per replicate): 12.1585% and 8.793% and 13.8%
- GSH% relative to K562 in 7e (Figure 7f) ([12]; KOPM28, Erastin treated, per replicate): 6.981% and 5.472% and 15%
- GSH level ([12]; erastin 0.5 μM): drastically reduced
- replication stress (DNA fiber) [17]: induced replication stress
- replication stress (DNA fiber) [18]: induced replication stress
